According to patent US10233195B2, “Anti-fibrotic pyridinones” (InterMune, Inc., priority 2014, dated 2019):

System: TGF-b induced Endothelin-1 production
Assay: ET-1 assay: inhibitory effect on TGF-b induced endothelin-1 production
Format: cell-based
Settings: Homo sapiens, Fibroblast; fibroblasts, stimulant (TGFb, serum, LPA etc), ET-1 in media by ELISA, 4-parameter fit
Procedure: Assay of Inhibitory Effect on TGF-b Induced Endothelin-1 Production
Fibroblasts (primary human lung and dermal, HFL-1, 3T3 etc) are seeded in 96-well plates at ˜15000 cells/well and serum starved for 0-48 hours. After media exchange, compounds serially diluted in DMSO are added to the cells. After a brief incubation of ˜30 min, stimulants (TGFb, serum, LPA etc) are added followed by further incubation for 16-48 hours. Media is then harvested and stored frozen in plate format for later endothelin-1 (ET-1) determination by ELISA. Toxicity measurements are made using the ATPlite kit (Perkin-Elmer). ET-1 is quantified using an ELISA kit (R&D Systems). The amount of ET-1 produced in the assay wells are back-calculated using the ELISA standard. The ability of a compound to inhibit ET-1 production is typically analyzed by fitting dose-response curves to a 4-parameter logistic function to obtain an EC50 value. A measure of cytotoxicity (CC50) is likewise reported from the same experiment using the ATPlite data.
Compounds of some embodiments were prepared according to synthetic methods described herein and assay data obtained for EC50 against ET-1. The assay data obtained is presented in Table 2, in which A=less than 50 μM, B=greater than or equal to 50 μM and less than or equal to 200 μM; and C=greater than 200 μM.

SMILES	EC50 [µM]
COc1ccc(CN(C)c2cc(=O)n(-c3ccc(OC(F)(F)F)cc3)cc2-c2cnn(C)c2)cc1 [Compound 135]	50 to 200
CCOC(=O)Nc1cc(=O)n(-c2ccc(OC(F)(F)F)cc2)cc1-c1cnn(C)c1 [Compound 137]	> 200
COC(=O)Nc1cc(=O)n(-c2ccc(OC(F)(F)F)cc2)cc1-c1cnn(C)c1 [Compound 138]	> 200
CC(C)OC(=O)Nc1cc(=O)n(-c2ccc(OC(F)(F)F)cc2)cc1-c1cnn(C)c1 [Compound 139]	> 200
CC(=O)Nc1cc(=O)n(-c2ccc(OC(F)(F)F)cc2)cc1-c1cnn(C)c1 [Compound 141]	> 200
Cn1cc(-c2cn(-c3ccc(OC(F)(F)F)cc3)c(=O)cc2OCc2ccccc2)cn1 [Compound 143]	> 200
COCCOc1cc(=O)n(-c2ccc(OC(F)(F)F)cc2)cc1-c1cnn(C)c1 [Compound 144]	> 200
Cn1cc(-c2cn(-c3ccc(OC(F)(F)F)cc3)c(=O)cc2OCCN2CCCC2)cn1 [Compound 145]	50 to 200
Cn1cc(-c2cn(-c3ccc(OC(F)(F)F)cc3)c(=O)cc2OCCN2CCCC2=O)cn1 [Compound 146]	> 200
Cn1cc(-c2cn(-c3ccc(OC(F)(F)F)cc3)c(=O)cc2OCCN2CCOCC2)cn1 [Compound 147]	> 200
Cn1cc(-c2cn(-c3ccc(OC(F)(F)F)cc3)c(=O)cc2OCCN2CCS(=O)(=O)CC2)cn1 [Compound 148]	> 200
Cn1cc(-c2cn(-c3ccc(OC(F)(F)F)cc3)c(=O)cc2OC2CCS(=O)(=O)CC2)cn1 [Compound 149]	50 to 200
Cn1cc(-c2cn(-c3ccc(OC(F)(F)F)cc3)c(=O)cc2OCCN2CCOCC2=O)cn1 [Compound 150]	50 to 200
CN1CCC(Oc2cc(=O)n(-c3ccc(OC(F)(F)F)cc3)cc2-c2cnn(C)c2)CC1 [Compound 151]	< 50
CN1CCN(CCOc2cc(=O)n(-c3ccc(OC(F)(F)F)cc3)cc2-c2cnn(C)c2)CC1 [Compound 152]	50 to 200
CCOc1ccc(Oc2cc(=O)n(-c3ccc(OC(F)(F)F)cc3)cc2-c2cnn(C)c2)cc1C [Compound 154]	> 200
Cn1cc(-c2cn(-c3ccc(OC(F)(F)F)cc3)c(=O)cc2Oc2cc(Cl)cc(C#N)c2)cn1 [Compound 156]	> 200
Cn1cc(-c2cn(-c3ccc(OC(F)(F)F)cc3)c(=O)cc2C(=O)O)cn1 [Compound 158]	> 200
CCCNC(=O)c1cc(=O)n(-c2ccc(OC(F)(F)F)cc2)cc1-c1cnn(C)c1 [Compound 159]	> 200
Cc1cc(=O)n(-c2cccc(C(F)(F)F)c2)cc1-c1ccccc1 [Compound 163]	< 50
Cc1cc(=O)n(-c2ccc(OC(F)(F)F)cc2)cc1-c1ccccc1 [Compound 164]	< 50
Cc1cc(=O)n(-c2ccccc2)cc1-c1ccccc1 [Compound 165]	50 to 200
Cc1cc(=O)n(-c2cccc(OC(F)(F)F)c2)cc1-c1ccccc1 [Compound 166]	< 50
CC(=O)Nc1cccc(-n2cc(-c3ccccc3)c(C)cc2=O)c1 [Compound 167]	> 200
CCOc1ccc(-n2cc(-c3ccccc3)c(C)cc2=O)c(C)c1 [Compound 168]	50 to 200
Cc1cc(=O)n(-c2ccc(Cl)cc2C)cc1-c1ccccc1 [Compound 169]	50 to 200
Cc1cc(=O)n(-c2ccc(C(F)(F)F)cc2C)cc1-c1ccccc1 [Compound 170]	< 50

SMILES	EC50 [µM]
Cc1cc(=O)n(-c2ccccc2F)cc1-c1ccccc1 [Compound 171]	50 to 200
CC(=O)Nc1cccc(-n2cc(-c3ccc(F)cc3)c(C)cc2=O)c1 [Compound 172]	> 200
Cc1cc(=O)n(-c2ccc(C(F)(F)F)cc2)cc1-c1ccc(F)cc1 [Compound 173]	> 200
Cc1cc(=O)n(-c2cccc(OC(F)(F)F)c2)cc1-c1ccc(F)cc1 [Compound 174]	< 50
Cc1cc(=O)n(-c2ccccc2)cc1-c1ccc(F)cc1 [Compound 176]	50 to 200
Cc1cc(=O)n(-c2cccc(C(F)(F)F)c2)cc1-c1ccc(F)cc1 [Compound 177]	50 to 200
Cc1cc(=O)n(-c2ccccc2F)cc1-c1ccc(F)cc1 [Compound 178]	50 to 200
Cc1cc(=O)n(-c2ccc(Cl)cc2)cc1-c1ccc(F)cc1 [Compound 181]	> 200
Cc1cc(=O)n(-c2ccc3c(c2)OCCO3)cc1-c1ccc(F)cc1 [Compound 182]	> 200
Cc1cc(=O)n(-c2ccc3c(c2)OCO3)cc1-c1ccc(F)cc1 [Compound 183]	> 200
Cc1cc(=O)n(-c2ccc(OC(F)(F)F)cc2C)cc1-c1ccc(F)cc1 [Compound 186]	< 50
Cc1cc(=O)n(-c2cccc(N)c2)cc1-c1ccc(F)cc1 [Compound 187]	50 to 200
CNC(=O)c1cccc(-n2cc(-c3ccc(F)cc3)c(C)cc2=O)c1 [Compound 190]	50 to 200
Cc1cc(=O)n(-c2ccc(OC(F)(F)F)cc2)cc1-c1cccc(Cl)c1 [Compound 191]	50 to 200
CCOc1ccc(-n2cc(-c3cccc(F)c3)c(C)cc2=O)c(C)c1 [Compound 193]	50 to 200
Cc1cc(=O)n(-c2ccc(OC(F)(F)F)cc2)cc1-c1ccccc1F [Compound 194]	< 50
Cc1cc(=O)n(-c2ccc(OC(F)(F)F)cc2)cc1-c1ccc(Cl)c(Cl)c1 [Compound 197]	50 to 200
CCc1cc(=O)n(-c2ccc(OC(F)(F)F)cc2)cc1-c1ccc(F)cc1 [Compound 199]	50 to 200
CC(C)c1cc(=O)n(-c2ccc(OC(F)(F)F)cc2)cc1-c1ccc(F)cc1 [Compound 200]	50 to 200
O=c1cc(C(F)(F)F)c(-c2ccc(F)cc2)cn1-c1ccc(OC(F)(F)F)cc1 [Compound 205]	50 to 200
Cc1cc(=O)n(-c2ccc(OC(F)(F)F)cc2)cc1-c1ccc2c(c1)OC(C)(C)O2 [Compound 211]	> 200
Cc1cc(=O)n(-c2ccc(F)cc2)cc1-c1ccc(OC(F)(F)F)cc1 [Compound 212]	50 to 200
Cc1cc(=O)n(-c2ccc(OC(F)(F)F)cc2)cc1-c1ccc(F)cc1 [Compound 213]	> 200
Cc1cc(=O)n(-c2ccccc2C)cc1-c1ccc(F)cc1 [Compound 214]	50 to 200
CC(=O)Nc1cccc(-n2cc(-c3cn[nH]c3)c(C)cc2=O)c1 [Compound 217]	> 200
COc1cc(-n2cc(-c3cn[nH]c3)c(C)cc2=O)cc(OC)c1OC [Compound 220]	> 200
COc1cc(-n2cc(-c3cnn(C)c3)c(C)cc2=O)cc(OC)c1OC [Compound 221]	> 200

SMILES	EC50 [µM]
Cc1cc(=O)n(-c2ccc3c(c2)OCCO3)cc1-c1cnn(C)c1 [Compound 222]	> 200
Cc1cc(=O)n(-c2ccc3c(c2)OCO3)cc1-c1cnn(C)c1 [Compound 223]	> 200
Cc1cc(=O)n(-c2ccc3ocnc3c2)cc1-c1cnn(C)c1 [Compound 224]	> 200
Cc1cc(=O)n(-c2ccc3scnc3c2)cc1-c1cnn(C)c1 [Compound 225]	> 200
Cc1cc(=O)n(-c2cccc(C(F)(F)F)c2)cc1-c1cnn(C)c1 [Compound 226]	> 200
Cc1cc(=O)n(-c2cccc(OC(F)(F)F)c2)cc1-c1cnn(C)c1 [Compound 227]	> 200
Cc1cc(=O)n(-c2ccc(C(F)(F)F)cc2)cc1-c1cnn(C)c1 [Compound 228]	50 to 200
Cc1cc(=O)n(-c2ccccc2F)cc1-c1cnn(C)c1 [Compound 230]	> 200
Cc1cc(=O)n(-c2cccc3c2OCCO3)cc1-c1cnn(C)c1 [Compound 231]	50 to 200
Cc1cc(=O)n(-c2cccc3c2OCO3)cc1-c1cnn(C)c1 [Compound 232]	> 200
Cc1cc(=O)n(-c2ccc3[nH]cnc3c2)cc1-c1cnn(C)c1 [Compound 233]	> 200
CCc1cc(=O)n(-c2ccc(OC(F)(F)F)cc2)cc1-c1cnn(C)c1 [Compound 235]	50 to 200
CC(C)c1cc(=O)n(-c2ccc(OC(F)(F)F)cc2)cc1-c1cnn(C)c1 [Compound 236]	50 to 200
Cn1cc(-c2cn(-c3ccc(OC(F)(F)F)cc3)c(=O)cc2C(F)(F)F)cn1 [Compound 240]	> 200
Cc1cc(=O)n(-c2ccc(OC(F)(F)F)cc2)cc1-c1cccnc1 [Compound 241]	> 200
Cc1cc(=O)n(-c2ccc(OC(F)(F)F)cc2)cc1-c1ccncc1 [Compound 242]	> 200
Cc1cc(=O)n(-c2ccc(OC(F)(F)F)cc2)cc1-n1ccnc1 [Compound 244]	> 200
Cc1cc(=O)n(-c2ccc(OC(F)(F)F)cc2)cc1-c1ccnn1C [Compound 247]	> 200
Cc1cc(=O)n(-c2ccc(OC(F)(F)F)cc2)cc1-c1cnc2nccn2c1 [Compound 248]	> 200
Cc1cc(=O)n(-c2ccc(OC(F)(F)F)cc2)cc1-c1ccc2cn(C)nc2c1 [Compound 250]	50 to 200
Cc1cc(=O)n(-c2ccc(OC(F)(F)F)cc2)cc1-c1nn[nH]n1 [Compound 253]	> 200
Cc1cc(=O)n(-c2ccc(OC(F)(F)F)cc2)cc1-c1ccc2c(ccn2C)c1 [Compound 255]	> 200
Cc1cc(=O)n(-c2ccc(OC(F)(F)F)cc2)cc1-c1nnn(C)n1 [Compound 256]	> 200
Cc1cc(=O)n(-c2ccc(OC(F)(F)F)cc2)cc1-c1nnnn1C [Compound 257]	> 200
Cc1cc(=O)n(-c2ccc(OC(F)(F)F)cc2)cc1-c1cnsc1 [Compound 264]	> 200
